For test [1], the system named is human monocytes. Description: Activation of human monocytes in whole blood (CD80 up-regulation, flow cytometry). It is filed as cell-based. How it is done: 100 μl of heparinised whole blood (WB) was incubated with 100 nM, 1 μM and 10 μM of each compound, in duplicate, and incubated overnight at 37° C. in a 5% CO2 humidified incubator. […] EMC Microcollections) was used as a positive control. To detect activation of monocytes, WB samples were stained with anti-CD14-FITC, anti-HLA-DR-Alexa700, anti-CD80-PE-Cy7, anti-CD40-PE, anti-CD86-APC, anti-CD16-APC-Cy7 (all from Biolegend) for 20 mins at RT, protected from light. Following incubation, 2 ml of BD FACS lyse (BD Biosciences) was added, incubated for 15 mins at RT, then washed twice with ice cold wash buffer (PBS, 1% Human Serum). Data acquisition was performed on a BD FACS Aria II (Becton Dickinson) and analysed using FlowJo software version 7.6.5 (TreeStar). CD80 receptor expression on monocytes was detected by gating on CD14+ HLADR+ cells.

Test [2] deals with CD8+ T cell clone 1C11. Description: CD8+ T cell clone activation assay, NY-ESO-1 118-143 constructs, autologous LCL as APC. The class given is cell-based, human. As to the method: Human CD4+ and CD8+ T cell clones were maintained at a concentration of 1-3×10^6/ml in RPMI 1640 supplemented with Glutamax, Penicillin/Streptomycin and 5% v/v human serum (“RS5”, all reagents from Life Technologie). Media was refreshed 50% v/v twice weekly. RS5 for CD4+ T cell clones was supplemented with IL-7 and IL-21, and RS5 for CD8+ T cell clones was supplemented with IL-7+IL-15 (all cytokines from PeproTech, used at a final concentration of 5 ng/ml).
Epstein-Barr Virus (“EBV”)-producing B95-8 MM cells were grown in RPMI 1640 supplemented with Glutamax, Penicillin/Streptomycin and 10% v/v fetal bovine serum (“RF10”, all reagents from Invitrogen) in T75 flasks (BD Biosciences). EBV-containing medium was collected and centrifuged to pellet non-adherent cells, and the EBV-containing supernatant then filter-sterilised (0.22 μm). 10×10^6 donor Peripheral Blood Mononuclear Cells (“PBMC”) were suspended in 1.5 ml RF10 in aT25 flask (BD Biosciences). 2.5 ml B95-8 cell culture supernatant was added and cells incubated for 2 hours. 1 ml fresh RF10 containing 5% v/v Phytohemaglutanin (“PHA”, Gibco) was then added (1% v/v final concentration). Flasks were monitored for outgrowth of B cell LCL, typically over 4-6 weeks, with transfer to a T75 flask (BD Biosciences) when required. LCL lines were cryopreserved and working stocks maintained in RF10 at 0.5-1.5×10^6/ml.
Donor LCL or MoDC (also referred to herein as antigen presenting cells or “APC”) were incubated for 16 h in RF10+ peptide/construct at desired concentration. In samples where Pam3Cys (“P3C”) and peptide moieties were both present but unconjugated, LCL were pre-treated with P3C for 30 minutes, and media then refreshed with RF10 containing both P3C and peptide. Untreated APC were incubated in RF10 only. APC/construct incubation was performed in 96 well plates (U-bottom, BD Biosciences) or in 48wp (flat bottom, BD Biosciences) depending of the nature of the assay and the numbers of APC required per treatment. Following incubation, APC were washed with RPMI 1640 4 times, to remove unbound construct/P3C. […]

For test [3], the system named is CD4+ T cell clone 1D6. Description: CD4+ T cell clone activation assay, NY-ESO-1 118-143 constructs, autologous LCL as APC. The class given is cell-based, human. The note with it: LCL pulsed with construct; 147 tested +/−P3C; 116 and 115 titratable (FIG. 13).
Experimental: Epstein-Barr Virus (“EBV”)-producing B95-8 MM cells were grown in RPMI 1640 supplemented with Glutamax, Penicillin/Streptomycin and 10% v/v fetal bovine serum (“RF10”, all reagents from Invitrogen) in T75 flasks (BD Biosciences). EBV-containing medium was collected and centrifuged to pellet non-adherent cells, and the EBV-containing supernatant then filter-sterilised (0.22 μm). 10×10^6 donor Peripheral Blood Mononuclear Cells (“PBMC”) were suspended in 1.5 ml RF10 in aT25 flask (BD Biosciences). […] Flasks were monitored for outgrowth of B cell LCL, typically over 4-6 weeks, with transfer to a T75 flask (BD Biosciences) when required. […]
Data acquisition was performed using a BD FACSAria II with FACSDiva software, and data analysis was performed using FlowJo software (Treestar). Data were presented as the median fluorescence intensity (MFI)+SD of CD25 and CD134 expression on live clonal cells. […]

Residues, ends and D or L forms follow the SMILES beside them. *: point of attachment. Ethyl(2-palmitoyloxy) = CCCCCCCCCCCCCCCC(=O)OCC*; Palmitoyl = CCCCCCCCCCCCCCCC(=O)*

Take `CCCCCCCCCCCCCCCC(=O)OCCSC[C@H](NC(C)=O)C(=O)N[C@@H](CO)C(=O)N[C@@H](CCCCN)C(=O)N[C@@H](CCCCN)C(=O)N[C@@H](CCCCN)C(=O)N[C@@H](CCCCN)C(N)=O` [compound 22] (Ac-C(Ethyl(2-palmitoyloxy))SKKKK-NH2): in test [1] (10 μM dose, in most donors), the “potency of CD80 up-regulation compared to Pam3CSK4” value is “equivalent potency to Pam3CSK4”. The “up-regulation of expression of CD80 on monocytes” value in test [1] (all doses tested (100 nM, 1 μM, 10 μM), whole blood of five donors, overnight) was “strongly upregulated expression of CD80”.
Take `CCCCCCCCCCCCCCCC(=O)SC[C@H](N)C(=O)N[C@@H](CO)C(=O)N[C@@H](CCCCN)C(=O)N[C@@H](CCCCN)C(=O)N[C@@H](CCCCN)C(=O)N[C@@H](CCCCN)C(N)=O` [compound 20] (H-C(Palmitoyl)SKKKK-NH2): the “potency of CD80 up-regulation compared to 22 and 26” value in test [1] (in three donors) was “lower potency than 22 and 26”.
In the case of “147 (VPGVLLKEFTVSGNILTIRLTAADHR; C-terminal acid) [compound 147]”, the T cell activation result in test [2] (100 nM) is on record as “No or negligible T cell activation”; in test [2] (1 μM, with exogenous P3C) it was 75%; in test [2] (1 μM, without exogenous P3C), 60%. In addition, in test [3], the “response of clone 1D6” value is recorded as “does not respond”.

Values taken from patent US10576144B2, “Amino acid and peptide conjugates and conjugation process” (AUCKLAND UNISERVICES LIMITED, priority 2014, dated 2020).
